In patent EP4667464A1 (Cyrus Therapeutics Inc., priority 2023, dated 2024):
Where two headings read alike, the source gives them in different places.

Tests used:
SOS1 = biological target: T1, SOS1 (Homo sapiens, UniProt Q07889); test: SOS-catalyzed nucleotide exchange assay (HTRF, SOS1-mediated GTP loading of KRAS G12D); format: biochemical
T1 construct: HIS-SOS1cat (160 nM; Cytoskeleton, US); His (N); purchased Cytoskeleton
T1 sequence (Q07889 564-1049 limits assumed): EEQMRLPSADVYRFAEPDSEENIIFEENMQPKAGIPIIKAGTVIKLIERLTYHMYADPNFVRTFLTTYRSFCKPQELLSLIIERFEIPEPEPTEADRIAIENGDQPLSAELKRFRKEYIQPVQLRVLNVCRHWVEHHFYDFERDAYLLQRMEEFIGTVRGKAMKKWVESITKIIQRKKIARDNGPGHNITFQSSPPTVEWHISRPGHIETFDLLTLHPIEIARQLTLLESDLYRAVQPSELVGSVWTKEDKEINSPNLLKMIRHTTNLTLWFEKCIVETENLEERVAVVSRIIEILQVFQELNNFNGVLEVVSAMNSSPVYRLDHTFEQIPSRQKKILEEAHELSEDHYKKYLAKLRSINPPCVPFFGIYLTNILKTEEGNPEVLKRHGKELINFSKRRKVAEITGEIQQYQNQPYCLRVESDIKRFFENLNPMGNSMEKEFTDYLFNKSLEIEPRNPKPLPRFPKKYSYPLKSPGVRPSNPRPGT

KRAS G12C::SOS1 = biological target: T2, KRAS G12C::SOS1 (Homo sapiens, UniProt Q07889); test: KRAS G12C::SOS1 protein-protein interaction (PPI) inhibition assay (HTRF); format: binding
T2 construct: purchased CISBIO 64KRASG12PEH
T2 sequence (Q07889 1-1333): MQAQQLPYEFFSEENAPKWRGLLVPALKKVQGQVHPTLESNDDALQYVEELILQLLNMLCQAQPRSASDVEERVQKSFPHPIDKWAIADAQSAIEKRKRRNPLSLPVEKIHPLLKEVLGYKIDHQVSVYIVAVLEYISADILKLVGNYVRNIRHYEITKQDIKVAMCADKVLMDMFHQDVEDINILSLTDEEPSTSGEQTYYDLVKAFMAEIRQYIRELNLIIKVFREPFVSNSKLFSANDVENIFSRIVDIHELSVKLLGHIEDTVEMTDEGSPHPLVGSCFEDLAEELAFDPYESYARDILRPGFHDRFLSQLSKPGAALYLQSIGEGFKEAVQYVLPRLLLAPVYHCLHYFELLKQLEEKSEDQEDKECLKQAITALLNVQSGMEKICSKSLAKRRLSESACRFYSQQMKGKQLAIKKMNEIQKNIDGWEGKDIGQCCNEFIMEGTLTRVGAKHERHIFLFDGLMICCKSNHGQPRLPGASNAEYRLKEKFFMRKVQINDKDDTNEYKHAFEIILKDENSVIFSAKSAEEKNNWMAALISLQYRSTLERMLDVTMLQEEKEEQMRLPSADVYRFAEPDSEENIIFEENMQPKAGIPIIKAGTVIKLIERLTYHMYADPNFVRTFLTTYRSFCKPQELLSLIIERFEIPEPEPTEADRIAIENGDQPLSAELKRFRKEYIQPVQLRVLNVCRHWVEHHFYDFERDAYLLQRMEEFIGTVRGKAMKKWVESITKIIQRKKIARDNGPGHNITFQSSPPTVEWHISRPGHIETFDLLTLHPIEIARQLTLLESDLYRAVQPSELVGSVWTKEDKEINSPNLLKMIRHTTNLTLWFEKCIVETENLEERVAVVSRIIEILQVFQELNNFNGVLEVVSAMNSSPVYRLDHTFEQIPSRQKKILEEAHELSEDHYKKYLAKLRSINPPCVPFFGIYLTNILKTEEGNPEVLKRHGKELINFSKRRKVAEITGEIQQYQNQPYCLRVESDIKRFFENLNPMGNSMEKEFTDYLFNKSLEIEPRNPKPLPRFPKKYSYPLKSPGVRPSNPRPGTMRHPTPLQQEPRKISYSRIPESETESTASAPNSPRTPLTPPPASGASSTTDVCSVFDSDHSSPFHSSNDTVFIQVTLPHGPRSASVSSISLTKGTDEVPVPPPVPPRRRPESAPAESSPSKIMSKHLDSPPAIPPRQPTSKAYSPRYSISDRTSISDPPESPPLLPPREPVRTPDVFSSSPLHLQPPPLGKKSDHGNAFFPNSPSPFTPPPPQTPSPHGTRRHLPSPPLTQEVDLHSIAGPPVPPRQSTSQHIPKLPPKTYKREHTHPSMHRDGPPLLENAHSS
Method in brief: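 Compounds, at eight 3-fold dilutions from 3 µM, were mixed with GTP-loaded Tag1-KRAS G12C, Tag2-SOS1 and a terbium-cryptate donor plus XL665 acceptor antibody pair. After 2 h at room temperature, time-resolved FRET reported the KRAS–SOS1 interaction.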

[1] = GST-KRAS G12D, HIS-SOS1cat, compound 128 pM to 10 µM, read-out: SOS-catalyzed nucleotide exchange assay
[2] = 8 concentrations from 3 µM, three replicates, read-out: KRAS G12C::SOS1 PPI

| IC50 (SOS1; [1]) [nM] | IC50 (KRAS G12C::SOS1; [2]) [nM] | SMILES | IC50 (SOS1) [nM] | IC50 (KRAS G12C::SOS1) [nM] |
| --- | --- | --- | --- | --- |
| 50 to 150 | > 150 | C[C@@H](NC(=O)c1ccc(=O)n(-c2cncc(-c3c(Cl)nnn3C)c2)n1)c1cccc(C(F)F)c1F [Example 13, N-{(R)-1-[3-(difluoromethyl)-2-fluorophenyl]ethyl}-1-[5-(4-chloro-1-methyl-1H-1,2,3-triazol-5-yl)-3-pyridyl]-6-oxo-1,6-dihydropyridazine-3-carboxamide] |  |  |
| < 50 | < 50 | C[C@@H](NC(=O)c1ccc(=O)n(-c2cncc(-c3cnnn3C3CN(C)C3)c2)n1)c1cccc(C(F)(F)F)c1F [Example 20, N-{(R)-1-[2-fluoro-3-(trifluoromethyl)phenyl]ethyl}-1-{5-[1-(1-methyl-3-azetidinyl)-1H-1,2,3-triazol-5-yl]-3-pyridyl}-6-oxo-1,6-dihydropyridazine-3-carboxamide] |  |  |
| < 50 | 50 to 150 | C[C@@H](NC(=O)c1ccc(=O)n(-c2cncc(-c3cnnn3C3CN(CCO)C3)c2)n1)c1cccc(C(F)(F)F)c1F [Example 20-1, (R)-N-(1-(2-fluoro-3-(trifluoromethyl)phenyl)ethyl)-1-(5-(1-(1-(2-hydroxyethyl)azetidin-3-yl)-1H-1,2,3-triazol-5-yl)pyridin-3-yl)-6-oxo-1,6-dihydropyridazine-3-carboxamide] |  |  |
| < 50 | < 50 | C[C@@H](NC(=O)c1ccc(=O)n(-c2cncc(-c3cnnn3C3CNC3)c2)n1)c1cccc(C(F)(F)CO)c1F [Example 20-2, (R)-1-(5-(1-(azetidin-3-yl)-1H-1,2,3-triazol-5-yl)pyridin-3-yl)-N-(1-(3-(1,1-difluoro-2-hydroxyethyl)-2-fluorophenyl)ethyl)-6-oxo-1,6-dihydropyridazine-3-carboxamide] |  |  |
|  |  | [2H]C([2H])(O)C(F)(F)c1cccc([C@@H](C)NC(=O)c2ccc(=O)n(-c3cncc(-c4cnnn4C4CNC4)c3)n2)c1F [Example 20-3, (R)-1-(5-(1-(azetidin-3-yl)-1H-1,2,3-triazol-5-yl)pyridin-3-yl)-N-(1-(3-(1,1-difluoro-2-hydroxyethyl-2,2-dideuterio)-2-fluorophenyl)ethyl)-6-oxo-1,6-dihydropyridazine-3-carboxamide] | < 50 | < 50 |
|  |  | C[C@@H](NC(=O)c1ccc(=O)n(-c2cncc(-c3cnnn3C3CCNCC3)c2)n1)c1cccc(C(F)(F)F)c1F [Example 20-4, N-[(1R)-1-[2-fluoro-3-(trifluoromethyl)phenyl]ethyl]-6-oxo-1-[5-[3-(4-piperidyl)triazol-4-yl]-3-pyridyl]pyridazine-3-carboxamide] | < 50 | 50 to 150 |
|  |  | C[C@@H](NC(=O)c1ccc(=O)n(-c2cncc(-c3cnnn3[C@H]3CCNC3)c2)n1)c1cccc(C(F)(F)F)c1F [Example 20-5, N-[(1R)-1-[2-fluoro-3-(trifluoromethyl)phenyl]ethyl]-6-oxo-1-[5-[3-[(3S)-pyrrolidin-3-yl]triazol-4-yl]-3-pyridyl]pyridazine-3-carboxamide] | 50 to 150 | 50 to 150 |
| < 50 | < 50 | C[C@@H](NC(=O)c1ccc(=O)n(-c2cncc(-c3cnnn3C3CCN(C)CC3)c2)n1)c1cccc(C(F)(F)F)c1F [Example 20-6, (R)-N-(1-(2-fluoro-3-(trifluoromethyl)phenyl)ethyl)-1-(5-(1-(1-methylpiperidin-4-yl)-1H-1,2,3-triazol-5-yl)pyridin-3-yl)-6-oxo-1,6-dihydropyridazine-3-carboxamide] |  |  |
| < 50 | < 50 | CC(=O)N1CCC(n2nncc2-c2cncc(-n3nc(C(=O)N[C@H](C)c4cccc(C(F)(F)F)c4F)ccc3=O)c2)CC1 [Example 20-7, (R)-1-(5-(1-(1-acetylpiperidin-4-yl)-1H-1,2,3-triazol-5-yl)pyridin-3-yl)-N-(1-(2-fluoro-3-(trifluoromethyl)phenyl)ethyl)-6-oxo-1,6-dihydropyridazine-3-carboxamide] |  |  |
| < 50 | < 50 | C[C@@H](NC(=O)c1ccc(=O)n(-c2cncc(-c3cnnn3C3CCN(S(C)(=O)=O)CC3)c2)n1)c1cccc(C(F)(F)F)c1F [Example 20-8, (R)-N-(1-(2-fluoro-3-(trifluoromethyl)phenyl)ethyl)-1-(5-(1-(1-(methylsulfonyl)piperidine-4-yl)-1H-1,2,3-triazol-5-yl)pyridin-3-yl)-6-oxo-1,6-dihydropyridazine-3-carboxamide] |  |  |
| < 50 | < 50 | CCN1CC(n2nncc2-c2cncc(-n3nc(C(=O)N[C@H](C)c4cccc(C(F)(F)F)c4F)ccc3=O)c2)C1 [Example 20-9, (R)-1-(5-(1-(1-ethylazetidin-3-yl)-1H-1,2,3-triazol-5-yl)pyridin-3-yl)-N-(1-(2-fluoro-3-(trifluoromethyl)phenyl)ethyl)-6-oxo-1,6-dihydropyridazine-3-carboxamide] |  |  |
| < 50 | < 50 | CC(=O)N1CC(n2nncc2-c2cncc(-n3nc(C(=O)N[C@H](C)c4cccc(C(F)(F)F)c4F)ccc3=O)c2)C1 [Example 20-10, (R)-1-(5-(1-(1-acetylazetidin-3-yl)-1H-1,2,3-triazol-5-yl)pyridin-3-yl)-N-(1-(2-fluoro-3-(trifluoromethyl)phenyl)ethyl)-6-oxo-1,6-dihydropyridazine-3-carboxamide] |  |  |
| < 50 | < 50 | COC(=O)N1CC(n2nncc2-c2cncc(-n3nc(C(=O)N[C@H](C)c4cccc(C(F)(F)F)c4F)ccc3=O)c2)C1 [Example 20-11, methyl (R)-3-(5-(5-(3-((1-(2-fluoro-3-(trifluoromethyl)phenyl)ethyl)carbamoyl)-6-oxopyridazin-1(6H)-yl)pyridin-3-yl)-1H-1,2,3-triazol-1-yl)azetidine-1-carboxylate] |  |  |
| < 50 | < 50 | C[C@@H](NC(=O)c1ccc(=O)n(-c2cncc(-c3cnnn3C3CN(S(C)(=O)=O)C3)c2)n1)c1cccc(C(F)(F)F)c1F [Example 20-12, (R)-N-(1-(2-fluoro-3-(trifluoromethyl)phenyl)ethyl)-1-(5-(1-(1-(methylsulfonyl)azetidin-3-yl)-1H-1,2,3-triazol-5-yl)pyridin-3-yl)-6-oxo-1,6-dihydropyridazine-3-carboxamide] |  |  |
|  |  | C[C@@H](NC(=O)c1ccc(=O)n(-c2cncc(-c3cnnn3[C@H]3CC3(F)F)c2)n1)c1cccc(C(F)(F)F)c1F [Example 23, 1-[5-[3-[(1S)-2,2-difluorocyclopropyl]triazol-4-yl]-3-pyridyl]-N-[(1R)-1-[2-fluoro-3-(trifluoromethyl)phenyl]ethyl]-6-oxo-pyridazine-3-carboxamide] | 50 to 150 | 50 to 150 |

| SMILES | IC50 (SOS1; [1]) [nM] | IC50 (KRAS G12C::SOS1; [2]) [nM] | IC50 (SOS1) [nM] | IC50 (KRAS G12C::SOS1) [nM] |
| --- | --- | --- | --- | --- |
| C[C@@H](NC(=O)c1ccc(=O)n(-c2cncc(-c3cnnn3C3CNC3)c2)n1)c1cccc(C(F)(F)F)c1F [Example 19] | < 50 | < 50 |  |  |
